Measured values published in PMC6152134, “Synthesis and In Vitro Anticancer Activity of Novel Dehydroabietic Acid-Based Acylhydrazones” (Molecules : A Journal of Synthetic Chemistry and Natural …, 2017).

Key:
[1] = tested on: HeLa (epithelial cervical) human carcinoma cell line; assay: MTT cytotoxicity assay, HeLa cells; assay type: cell-based; settings: 48 h exposure
Protocol: (§1) Compounds 4a–x were evaluated for their cytotoxic activity in vitro against the human cancer cell lines, CNE-2, HepG2, HeLa, and BEL-7402 by using a 3-(4,5-dimethylthiazol-2-yl)-2,5-diphenyl tetrazolium bromide (MTT) colorimetric assay. Cisplatin was included in the experiments as a positive control, and the IC50 of DHA is also presented to compare the anticancer activities. The calculated IC50 values were reported differently according to the different cancer cells.
(§2) The CNE-2, HepG2, HeLa, and BEL-7402 cell lines used in this work were all purchased from the Institute of Biochemistry and Cell Biology, China Academy of Sciences. All were supplemented with 10% heat-inactivated fetal bovine serum in a humidified atmosphere of 5% CO2/95% air at 37 °C. In order to investigate the potential of compounds 4, cisplatin, a commercial classical anticancer drug was used as a reference drug. CNE-2, HepG2, HeLa, and BEL-7402 cells were seeded into 96-well microculture plates and allowed to adhere for 24 h, respectively. After cells were exposed to compounds at concentrations from 100 to 0.1 μM for 48 h, medium was aspirated and replenished with complete medium. IC50 values was evaluated by MTT tetrazolium dye assay. All the tests were repeated in at least three independent experiments. The IC50 values of the compounds were calculated using SPSS Version 10 software (IBM, New York, NY, USA), which defined the IC50 value as the concentration required to inhibit cell growth by 50%.

[2] = tested on: HL-7702 normal human liver cell line; assay: MTT cytotoxicity assay, HL-7702 normal liver cells; assay type: cell-based
[3] = tested on: CNE-2 (nasopharynx) human carcinoma cell line; assay: MTT cytotoxicity assay, CNE-2 cells; assay type: cell-based; settings: 48 h exposure
Protocol: as §1, §2

[4] = tested on: BEL-7402 (liver) human carcinoma cell line; assay: MTT cytotoxicity assay, BEL-7402 cells; assay type: cell-based; settings: 48 h exposure
Protocol: as §1, §2

[5] = tested on: HepG2 (liver) human carcinoma cell line; assay: MTT cytotoxicity assay, HepG2 cells; assay type: cell-based; settings: 48 h exposure
Protocol: as §1, §2

[6] = tested on: human promyelocytic leukemic cells (HL-60); parameters: method as in PMID 20884091; settings: read-out: IC50 against HL-60; cited from earlier work
[7] = L02, normal human liver cell HL-7702

| melting point [°C] | SMILES | IC50 ([1]; Homo sapiens, HeLa, 48 h) [µM] | IC50 [2, 7] [µM] | IC50 ([3]; Homo sapiens) [µM] | IC50 ([4]; Homo sapiens) [µM] | IC50 ([5]; Homo sapiens, HepG2, 48 h) [µM] | IC50 [1] [µM] | IC50 [5] [µM] | IC50 [6] [µM] | IC50 ([2]; normal human liver cell HL-7702) [µM] | IC50 [3] [µM] | IC50 [4] [µM] |
| --- | --- | --- | --- | --- | --- | --- | --- | --- | --- | --- | --- | --- |
| 155.1 to 156.7 | CC(C)c1ccc2c(c1)CCC1C(C)(C(=O)OCC(=O)NN=Cc3ccccc3)CCCC21C (centres unmarked) [4a] | 17.89 ± 0.13 | > 100 | 28.2 ± 0.43 | 36.7 ± 0.34 | 27.8 ± 0.58 |  |  |  |  |  |  |
| 170 to 172.1 | Cc1ccc(C=NNC(=O)COC(=O)C2(C)CCCC3(C)c4ccc(C(C)C)cc4CCC23)cc1 (centres unmarked) [4b] | 6.72 ± 0.22 | 68.6 ± 2.14 | 17.2 ± 0.21 | 15.38 ± 0.08 | 12.4 ± 0.31 |  |  |  |  |  |  |
| 185.7 to 187.3 | CC(C)c1ccc2c(c1)CCC1C(C)(C(=O)OCC(=O)NN=C/C=C/c3ccccc3)CCCC21C (centres unmarked) [4c, N’-(3-Phenylallylidene)-2-(dehydroabietyloxy)acetohydrazide] | 10.8 ± 0.43 | 53.2 ± 1.36 | 15.8 ± 0.56 | 21.03 ± 0.09 | 27.6 ± 0.23 |  |  |  |  |  |  |
| 117.6 to 119 | COc1cc(C=NNC(=O)COC(=O)C2(C)CCCC3(C)c4ccc(C(C)C)cc4CCC23)ccc1O (centres unmarked) [4d] | 12.22 ± 0.08 | 50.7 ± 1.82 | 38.7 ± 0.49 | 33.6 ± 0.38 | 35.26 ± 0.11 |  |  |  |  |  |  |
| 163.4 to 164.7 | CC(C)c1ccc2c(c1)CCC1C(C)(C(=O)OCC(=O)NN=Cc3ccc(N(C)C)cc3)CCCC21C (centres unmarked) [4e] | 34.92 ± 0.16 | 63 ± 3.06 | 48.85 ± 0.05 | 15.6 ± 0.44 | 7.62 ± 0.32 |  |  |  |  |  |  |
| 125.7 to 126.4 | CC(C)c1ccc2c(c1)CCC1C(C)(C(=O)OCC(=O)NN=Cc3ccco3)CCCC21C (centres unmarked) [4f] | 33.23 ± 0.21 | 61.9 ± 1.34 | 51.39 ± 0.34 | 16.9 ± 0.41 | 25.6 ± 0.35 |  |  |  |  |  |  |
| 214.9 to 215.6 | CC(C)c1ccc2c(c1)CCC1C(C)(C(=O)OCC(=O)NN=Cc3ccccc3O)CCCC21C (centres unmarked) [4g] | 27.3 ± 0.5 | > 100 | 60.4 ± 1.02 | 36.4 ± 0.74 | 12.5 ± 0.46 |  |  |  |  |  |  |
| 94.9 to 96.7 | CC(C)c1ccc2c(c1)CCC1C(C)(C(=O)OCC(=O)NN=Cc3ccccc3[N+](=O)[O-])CCCC21C (centres unmarked) [4h] | 15.2 ± 0.29 | > 100 | 98.78 ± 0.45 | 38.5 ± 0.52 | 44.6 ± 0.92 |  |  |  |  |  |  |
| 99.6 to 101.9 | CC(C)c1ccc2c(c1)CCC1C(C)(C(=O)OCC(=O)NN=Cc3cccc([N+](=O)[O-])c3)CCCC21C (centres unmarked) [4i] | 13.9 ± 0.41 | 77.1 ± 0.96 | 12.6 ± 0.24 | 44.65 ± 0.21 | 57.8 ± 0.75 |  |  |  |  |  |  |
| 177.2 to 179.8 | CC(C)c1ccc2c(c1)CCC1C(C)(C(=O)OCC(=O)NN=Cc3ccc([N+](=O)[O-])cc3)CCCC21C (centres unmarked) [4j] | 13.06 ± 0.08 | > 100 | 93.26 ± 0.52 | 27.45 ± 0.17 | 39.5 ± 0.82 |  |  |  |  |  |  |
| 184.9 to 185.7 | CC(C)c1ccc2c(c1)CCC1C(C)(C(=O)OCC(=O)NN=Cc3ccccc3Br)CCCC21C (centres unmarked) [4k, N’-(2-Bromobenzylidene)-2-(dehydroabietyloxy)acetohydrazide] | < 10 | 65.9 ± 1.48 | 47.7 ± 0.23 | 48.16 ± 0.32 | < 10 | 5.53 ± 0.04 | 8.47 ± 0.55 |  |  |  |  |
| 178.3 to 179.8 | CC(C)c1ccc2c(c1)CCC1C(C)(C(=O)OCC(=O)NN=Cc3cccc(Br)c3)CCCC21C (centres unmarked) [4l] | 25.14 ± 0.1 | 86.4 ± 3.12 | 11.45 ± 0.11 | 19.9 ± 0.27 | 35.1 ± 0.96 |  |  |  |  |  |  |
| 188.1 to 188.6 | CC(C)c1ccc2c(c1)CCC1C(C)(C(=O)OCC(=O)NN=Cc3ccc(Br)cc3)CCCC21C (centres unmarked) [4m] | 12.8 ± 0.15 | > 100 | 89.66 ± 0.27 | 23.1 ± 0.33 | 9.94 ± 0.59 |  |  |  |  |  |  |
| 190.3 to 191.8 | COc1ccccc1C=NNC(=O)COC(=O)C1(C)CCCC2(C)c3ccc(C(C)C)cc3CCC12 (centres unmarked) [4n] | 45.13 ± 0.09 | 70.4 ± 2.23 | 26.08 ± 0.05 | 23.8 ± 0.51 | 50.1 ± 0.74 |  |  |  |  |  |  |
| 136.7 to 137.9 | COc1cccc(C=NNC(=O)COC(=O)C2(C)CCCC3(C)c4ccc(C(C)C)cc4CCC23)c1 (centres unmarked) [4o] | 32.06 ± 0.21 | > 100 | 86.46 ± 0.13 | 14.8 ± 0.38 | 51.3 ± 0.63 |  |  |  |  |  |  |
| 174.8 to 175.5 | COc1ccc(C=NNC(=O)COC(=O)C2(C)CCCC3(C)c4ccc(C(C)C)cc4CCC23)cc1 (centres unmarked) [4p, N’-(4-Methoxybenzylidene)-2-(dehydroabietyloxy)acetohydrazide] | 34.33 ± 0.32 | 91.8 ± 1.57 | 56.98 ± 0.08 | 55.29 ± 0.44 | 48.59 ± 0.09 |  |  |  |  |  |  |
| 130.2 to 130.5 | CC(C)c1ccc2c(c1)CCC1C(C)(C(=O)OCC(=O)NN=Cc3ccccc3F)CCCC21C (centres unmarked) [4q, Dehydroabietic acid-based 2-fluorophenyl acylhydrazone] | 27.71 ± 0.14 | > 100 | 27.4 ± 0.72 | 22.8 ± 0.34 | 93.76 ± 0.39 |  |  |  |  |  |  |
| 166 to 167.3 | CC(C)c1ccc2c(c1)CCC1C(C)(C(=O)OCC(=O)NN=Cc3cccc(F)c3)CCCC21C (centres unmarked) [4r] | 12.8 ± 0.13 | 68.6 ± 1.25 | 51 ± 0.94 | 25.9 ± 0.53 | 31.6 ± 0.47 |  |  |  |  |  |  |
| 169.2 to 170.5 | CC(C)c1ccc2c(c1)CCC1C(C)(C(=O)OCC(=O)NN=Cc3ccc(F)cc3)CCCC21C (centres unmarked) [4s] | 28.79 ± 0.24 | > 100 | 49.81 ± 0.49 | 25.22 ± 0.22 | 90.08 ± 0.33 |  |  |  |  |  |  |
| 150.2 to 153.5 | CC(C)c1ccc2c(c1)CCC1C(C)(C(=O)OCC(=O)NN=Cc3cccc(F)c3F)CCCC21C (centres unmarked) [4t] | 11.1 ± 0.15 | 72 ± 1.66 | 33.3 ± 0.56 | 18.8 ± 0.59 | 22.89 ± 0.04 |  |  |  |  |  |  |
| 181.9 to 184.5 | CC(C)c1ccc2c(c1)CCC1C(C)(C(=O)OCC(=O)NN=Cc3ccc(F)cc3F)CCCC21C (centres unmarked) [4u, N’-(2,4-Difluorobenzylidene)-2-(dehydroabietyloxy)acetohydrazide] | 5.86 ± 0.09 | 55.8 ± 1.38 | 32.83 ± 0.16 | 18.6 ± 0.37 | 25.4 ± 0.54 |  |  |  |  |  |  |
| 107.3 to 110 | CC(C)c1ccc2c(c1)CCC1C(C)(C(=O)OCC(=O)NN=Cc3c(F)cccc3F)CCCC21C (centres unmarked) [4v] | 15 ± 0.21 | 44.6 ± 2.02 | 26.8 ± 0.46 | 20.5 ± 0.53 | 16.9 ± 0.18 |  |  |  |  |  |  |
| 182.6 to 186.6 | CC(C)c1ccc2c(c1)CCC1C(C)(C(=O)OCC(=O)NN=Cc3cc(F)cc(F)c3)CCCC21C (centres unmarked) [4w] | 2.21 ± 0.04 | 66.1 ± 1.84 | 15.4 ± 0.21 | 14.5 ± 0.22 | 12.07 ± 0.07 |  |  |  |  |  |  |
|  | O=C(N/N=C/c1ccccc1O)c1ccc(-c2ccc(F)cc2F)o1 [(E)-2-hydroxybenzaldehyde-5-(2,4-difluorophenyl)-2-furoyl hydrazone] |  |  |  |  |  |  |  | 16.4 |  |  |  |
|  | N.N.[Cl][Pt][Cl] [Cisplatin, cisplatin, reference compound] |  |  |  |  |  | 1.94 ± 0.2 | 6.42 ± 0.18 |  | 20.8 ± 0.83 | 8.75 ± 0.24 | 12.7 ± 0.33 |
|  | CC(C)c1ccc2c(c1)CC[C@H]1[C@](C)(C(=O)O)CCC[C@]21C [DHA, dehydroabietic acid] | 37.4 ± 0.64 | > 100 | 88.64 ± 0.73 | 46.7 ± 0.55 | 80.4 ± 0.84 |  |  |  |  |  |  |
|  | COc1cccc2c1C(=O)c1c(O)c3c(c(O)c1C2=O)C[C@@](O)(C(=O)CO)C[C@@H]3O[C@H]1C[C@H](N)[C@H](O)[C@H](C)O1 [doxorubicin] |  |  |  |  |  |  |  | 53.3 |  |  |  |
